Active and inactive are the calls of the source.
Key:
Bcl-2-related protein A1 [1] = target: T1, Bcl-2-related protein A1 (Mus musculus, UniProt Q07440); assay: Bfl-1 binding inhibitors, SAR follow-up, biochemical, fluorescence polarization (AID 1070)
T1 sequence (Q07440 whole entry): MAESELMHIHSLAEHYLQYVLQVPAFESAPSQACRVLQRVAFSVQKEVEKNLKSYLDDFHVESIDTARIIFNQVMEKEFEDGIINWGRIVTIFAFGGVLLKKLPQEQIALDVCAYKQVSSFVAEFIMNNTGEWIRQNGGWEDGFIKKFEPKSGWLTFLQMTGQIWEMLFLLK

Bcl-2-related protein A1 [2] = target: T1, Bcl-2-related protein A1; assay: Bfl-1 inhibitors blocking BH3 peptide binding, confirmation, biochemical, TR-FRET, mouse Bfl-1 (AID 621);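 also: TR-FRET binding of GST-Bfl-1 to FITC-labelled Bid peptide via terbium antibody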
[3] = target: Glyceraldehyde-3-phosphate dehydrogenase (Homo sapiens, UniProt P04406)
Glyceraldehyde-3-phosphate dehydrogenase, sequence (P04406 whole entry): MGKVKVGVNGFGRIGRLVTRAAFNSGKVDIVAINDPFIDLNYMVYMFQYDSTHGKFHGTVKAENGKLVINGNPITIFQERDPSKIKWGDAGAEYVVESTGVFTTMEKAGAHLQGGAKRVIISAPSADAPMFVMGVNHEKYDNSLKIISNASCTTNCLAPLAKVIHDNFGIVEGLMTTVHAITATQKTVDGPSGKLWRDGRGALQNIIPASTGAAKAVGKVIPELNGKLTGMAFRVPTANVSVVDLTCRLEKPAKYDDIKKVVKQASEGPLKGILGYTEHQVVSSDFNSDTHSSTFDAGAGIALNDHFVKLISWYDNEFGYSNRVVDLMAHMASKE

[4] = target: Aryl hydrocarbon receptor (Homo sapiens, UniProt P35869); assay: Luminescence-based cell-based high throughput dose response assay for activators of the Aryl Hydrocarbon Receptor (AHR). [Related pubchem assays: 2796 (Primary screen (AHR activators in singlicate)), 2845 (Confirmation screen (AHR activators in triplicate)), 434939 (Counterscreen (PXR activators in triplicate)), 2804 (Summary (AHR activators))]; format: ADME
[5] = test system: Streptococcus sp. 'group A'; assay: growth inhibition of control SK(-) GAS strain, dose response, counter-screen for streptokinase expression inhibitor project, luminescence, kanamycin, BacTiterGlo, confirmation (AID 1900); format: functional, organism-based
Streptococcus = assay: Group A Streptococcus viability loss, dose response, counter-screen for streptokinase expression inhibitor project, luminescence, BacTiterGlo (AID 1915); format: functional, organism-based;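 also: potency for reduction of bacterial viability or growth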
Streptokinase A = target: T2, Streptokinase A (Streptococcus pyogenes serotype M1, UniProt P10520); assay: S. pyogenes streptokinase expression inhibitors, potency, dose response, plasminogen activation absorbance, OD405 (AID 1914); format: functional, Streptococcus pyogenes M1 GAS;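 also: secreted streptokinase activity via plasminogen activation per viability signal from cell pellet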
T2 sequence (P10520 whole entry): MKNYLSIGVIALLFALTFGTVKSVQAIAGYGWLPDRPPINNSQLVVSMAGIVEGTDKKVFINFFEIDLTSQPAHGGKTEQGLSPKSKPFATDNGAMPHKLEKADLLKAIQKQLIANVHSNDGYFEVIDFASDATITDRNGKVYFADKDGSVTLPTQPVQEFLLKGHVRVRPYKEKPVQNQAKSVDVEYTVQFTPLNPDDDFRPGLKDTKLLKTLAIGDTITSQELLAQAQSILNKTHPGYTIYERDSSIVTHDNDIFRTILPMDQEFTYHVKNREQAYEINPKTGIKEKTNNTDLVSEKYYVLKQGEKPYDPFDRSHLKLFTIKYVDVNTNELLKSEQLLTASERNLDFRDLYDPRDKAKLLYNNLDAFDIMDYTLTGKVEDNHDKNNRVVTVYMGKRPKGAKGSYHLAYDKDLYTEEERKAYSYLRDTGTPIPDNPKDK

Bcl-2-related protein A1 [6] = target: T1, Bcl-2-related protein A1; assay: Bfl-1 inhibitors, primary screen, biochemical, fluorescence polarization, FITC-Bid, mouse (AID 432)
[7] = target: T3, RNA-binding protein pos-1 (Caenorhabditis elegans, UniProt G5EF15); assay: inhibitors of POS-1/mex-3 RNA binding, dose response, biochemical, fluorescence polarization (AID 1964);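 also: purified POS-1 fused to maltose binding protein made in E. coli; potency of compounds blocking POS-1 binding to fluorescent RNA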
T3 sequence (G5EF15 whole entry): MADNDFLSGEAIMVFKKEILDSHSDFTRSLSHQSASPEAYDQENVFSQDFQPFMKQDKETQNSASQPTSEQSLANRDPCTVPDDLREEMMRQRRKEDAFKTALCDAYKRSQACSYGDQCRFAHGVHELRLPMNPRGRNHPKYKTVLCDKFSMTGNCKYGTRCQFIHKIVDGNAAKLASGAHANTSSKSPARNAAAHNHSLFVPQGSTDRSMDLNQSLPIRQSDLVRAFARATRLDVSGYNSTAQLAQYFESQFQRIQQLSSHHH

[8] = target: T4, Zinc finger protein mex-5 (Caenorhabditis elegans, UniProt Q9XUB2); assay: MEX-5/TCR-2 RNA interaction inhibitors, dose response, biochemical, C. elegans, fluorescence polarization (AID 1960)
T4 sequence (Q9XUB2 whole entry): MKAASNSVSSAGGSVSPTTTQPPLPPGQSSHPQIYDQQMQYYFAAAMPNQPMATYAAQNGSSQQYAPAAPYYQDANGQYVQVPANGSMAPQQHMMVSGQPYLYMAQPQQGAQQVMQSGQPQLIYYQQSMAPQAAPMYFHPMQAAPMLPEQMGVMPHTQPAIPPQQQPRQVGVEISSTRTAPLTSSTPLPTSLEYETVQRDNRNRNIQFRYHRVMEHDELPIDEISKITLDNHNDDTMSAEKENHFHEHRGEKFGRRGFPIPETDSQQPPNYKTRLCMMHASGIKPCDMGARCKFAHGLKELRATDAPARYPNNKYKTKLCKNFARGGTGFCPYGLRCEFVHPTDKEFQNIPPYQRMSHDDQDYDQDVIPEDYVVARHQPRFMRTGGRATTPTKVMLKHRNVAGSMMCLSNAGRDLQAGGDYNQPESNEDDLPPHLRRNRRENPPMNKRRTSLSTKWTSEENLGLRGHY

[9] = Vero cell cytotoxicity, dose response, cytotoxicity control for Vif-APOBEC3G degradation inhibitor project, Vero cells (AID 1117358); format: functional; settings: Human immunodeficiency virus 1, Vero
[10] = Luminescence Cell-Based Dose Confirmation HTS to Identify Inhibitors of Platelet Dense Granule Release. [Related pubchem assays: 1663 (Primary HTS), 1678 (Summary of Project)]; format: functional
Ephrin type-A receptor 4 = Ephrin type-A receptor 4 (Mus musculus, UniProt Q03137); assay: inhibitors of EphA4 binding to KYL peptide, primary screen, biochemical, colorimetric, mouse EphA4 (AID 689); format: functional
[11] = target: Luciferin 4-monooxygenase (Photinus pyralis, UniProt P08659); assay: firefly luciferase enzyme inhibitors, dose response, biochemical, luminescence (AID 1891)
Luciferin 4-monooxygenase, sequence (P08659 whole entry): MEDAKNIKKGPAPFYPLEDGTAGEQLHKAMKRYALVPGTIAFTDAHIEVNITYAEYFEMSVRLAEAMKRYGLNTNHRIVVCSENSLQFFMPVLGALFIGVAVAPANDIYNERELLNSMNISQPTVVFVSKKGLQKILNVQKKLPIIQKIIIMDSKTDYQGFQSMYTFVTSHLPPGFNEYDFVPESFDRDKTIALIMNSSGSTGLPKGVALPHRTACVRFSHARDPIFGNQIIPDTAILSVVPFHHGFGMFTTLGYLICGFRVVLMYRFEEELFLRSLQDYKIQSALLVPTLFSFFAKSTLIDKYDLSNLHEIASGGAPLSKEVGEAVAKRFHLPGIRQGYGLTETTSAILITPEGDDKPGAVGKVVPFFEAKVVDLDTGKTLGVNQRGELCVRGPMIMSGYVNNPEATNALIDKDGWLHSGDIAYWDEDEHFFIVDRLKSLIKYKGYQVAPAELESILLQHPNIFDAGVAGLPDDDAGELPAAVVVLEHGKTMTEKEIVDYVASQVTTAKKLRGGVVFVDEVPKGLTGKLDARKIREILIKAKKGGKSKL

[12] = target: Transitional endoplasmic reticulum ATPase (Homo sapiens, UniProt P55072); assay: Luminescence dose response biochemical high throughput screening assay for inhibitors of the p97 ATPase: synthesized compounds. [Related pubchem assays: 1481, 1517 ]
[13] = target: Transitional endoplasmic reticulum ATPase (Homo sapiens, UniProt P55072, C522A); assay: Luminescence counterscreen assay for p97 inhibitors: dose response biochemical high throughput screening assay to identify inhibitors of the C522A mutant p97 ATPase: synthesized compounds. [Related pubchem assays: 1481, 1517, 1551 ]
Transitional endoplasmic reticulum ATPase (Homo sapiens, UniProt P55072, C522A), sequence (P55072 2-806 C522A limits assumed): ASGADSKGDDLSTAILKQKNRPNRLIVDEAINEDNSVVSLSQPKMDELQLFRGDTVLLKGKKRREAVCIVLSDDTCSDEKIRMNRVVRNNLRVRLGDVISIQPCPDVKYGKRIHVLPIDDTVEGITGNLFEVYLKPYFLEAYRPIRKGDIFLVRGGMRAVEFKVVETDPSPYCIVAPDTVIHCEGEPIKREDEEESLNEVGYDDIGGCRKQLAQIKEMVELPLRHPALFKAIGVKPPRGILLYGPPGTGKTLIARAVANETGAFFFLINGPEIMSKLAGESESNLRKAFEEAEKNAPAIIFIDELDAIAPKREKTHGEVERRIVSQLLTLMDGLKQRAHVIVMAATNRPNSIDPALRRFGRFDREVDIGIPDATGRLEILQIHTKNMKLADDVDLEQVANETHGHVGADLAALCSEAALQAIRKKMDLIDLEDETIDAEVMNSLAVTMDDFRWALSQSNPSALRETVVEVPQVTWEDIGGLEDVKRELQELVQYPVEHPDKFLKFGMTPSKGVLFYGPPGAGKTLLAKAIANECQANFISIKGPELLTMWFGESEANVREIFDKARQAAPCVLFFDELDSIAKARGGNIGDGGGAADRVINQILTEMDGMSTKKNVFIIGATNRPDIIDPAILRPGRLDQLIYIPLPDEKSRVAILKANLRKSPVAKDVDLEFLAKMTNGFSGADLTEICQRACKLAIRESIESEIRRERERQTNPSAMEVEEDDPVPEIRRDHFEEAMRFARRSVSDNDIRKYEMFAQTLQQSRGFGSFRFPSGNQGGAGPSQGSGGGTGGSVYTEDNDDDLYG

[14] = target: SWI/SNF-related matrix-associated actin-dependent regulator of chromatin subfamily A member 2 (Homo sapiens, UniProt P51531); assay: Luminescence-based cell-based high throughput dose response assay to identify activators of the function of SWI/SNF related, matrix associated, actin dependent regulator of chromatin, subfamily a, member 2 (SMARCA2, BRM).; format: functional
[15] = Luminescence-based cell-based high throughput dose response assay to identify activators of the DAF-12 from the parasite S. stercoralis (ssDAF-12).; format: functional
[16] = Counterscreen for activators of the function of SWI/SNF related, matrix associated, actin dependent regulator of chromatin, subfamily a, member 2 (SMARCA2, BRM): Luminescence-based cell-based high throughput dose response assay to identify non-selective compounds using the VP16 reporter assay.; format: functional
[17] = target: Photoreceptor-specific nuclear receptor (Homo sapiens, UniProt Q9Y5X4); format: functional, cell-based;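 also: CHO-S cells with Gal4-NCOR and VP16-NR2E3 two-hybrid luciferase reporter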
Photoreceptor-specific nuclear receptor, sequence (Q9Y5X4 whole entry, the tested form may be a part): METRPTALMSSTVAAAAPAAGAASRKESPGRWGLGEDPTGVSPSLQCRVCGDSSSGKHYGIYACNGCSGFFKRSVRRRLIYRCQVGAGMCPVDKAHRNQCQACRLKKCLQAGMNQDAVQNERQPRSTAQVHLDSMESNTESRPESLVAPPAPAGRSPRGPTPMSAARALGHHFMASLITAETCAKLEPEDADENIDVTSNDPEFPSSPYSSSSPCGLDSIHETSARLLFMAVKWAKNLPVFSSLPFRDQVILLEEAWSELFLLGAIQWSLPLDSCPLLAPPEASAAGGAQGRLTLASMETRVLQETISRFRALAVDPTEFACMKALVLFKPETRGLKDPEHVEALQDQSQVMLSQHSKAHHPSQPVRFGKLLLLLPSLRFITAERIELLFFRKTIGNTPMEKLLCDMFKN

Cytochrome P450 2C9 = Cytochrome P450 2C9 (Homo sapiens, UniProt P11712)
Cytochrome P450 2C9, sequence (P11712 whole entry): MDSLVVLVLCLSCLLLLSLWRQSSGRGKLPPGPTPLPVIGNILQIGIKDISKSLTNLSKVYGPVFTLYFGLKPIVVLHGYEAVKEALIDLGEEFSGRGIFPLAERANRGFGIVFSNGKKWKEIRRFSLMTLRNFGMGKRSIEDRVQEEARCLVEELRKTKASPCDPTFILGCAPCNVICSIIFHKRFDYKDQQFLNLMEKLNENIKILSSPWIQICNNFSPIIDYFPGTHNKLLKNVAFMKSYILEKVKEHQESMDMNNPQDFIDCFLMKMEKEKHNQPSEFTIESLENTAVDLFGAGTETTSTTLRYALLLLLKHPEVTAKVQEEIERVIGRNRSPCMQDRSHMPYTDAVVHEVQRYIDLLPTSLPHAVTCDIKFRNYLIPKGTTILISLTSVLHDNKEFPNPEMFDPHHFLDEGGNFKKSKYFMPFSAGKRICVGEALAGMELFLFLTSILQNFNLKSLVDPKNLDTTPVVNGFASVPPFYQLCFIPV

Transthyretin = Transthyretin (Homo sapiens, UniProt P02766); assay: Luminescence-based cell-based high throughput dose response assay to identify activators of Transthyretin (TTR) transcription.; format: functional
Vero = assay: cytotoxicity of synthesized analogs in Vero cells, SAR follow-up, cytotoxicity control for West Nile virus antiviral project, cell-based, set II (AID 2402); format: functional; settings: Chlorocebus sabaeus
[18] = target: Voltage-gated inwardly rectifying potassium channel KCNH2 (Homo sapiens, UniProt Q12809); assay: hERG protection from proarrhythmic block, potency, dose response, cell-based, thallium flux (AID 2121); format: ADME
Voltage-gated inwardly rectifying potassium channel KCNH2, sequence (Q12809 whole entry): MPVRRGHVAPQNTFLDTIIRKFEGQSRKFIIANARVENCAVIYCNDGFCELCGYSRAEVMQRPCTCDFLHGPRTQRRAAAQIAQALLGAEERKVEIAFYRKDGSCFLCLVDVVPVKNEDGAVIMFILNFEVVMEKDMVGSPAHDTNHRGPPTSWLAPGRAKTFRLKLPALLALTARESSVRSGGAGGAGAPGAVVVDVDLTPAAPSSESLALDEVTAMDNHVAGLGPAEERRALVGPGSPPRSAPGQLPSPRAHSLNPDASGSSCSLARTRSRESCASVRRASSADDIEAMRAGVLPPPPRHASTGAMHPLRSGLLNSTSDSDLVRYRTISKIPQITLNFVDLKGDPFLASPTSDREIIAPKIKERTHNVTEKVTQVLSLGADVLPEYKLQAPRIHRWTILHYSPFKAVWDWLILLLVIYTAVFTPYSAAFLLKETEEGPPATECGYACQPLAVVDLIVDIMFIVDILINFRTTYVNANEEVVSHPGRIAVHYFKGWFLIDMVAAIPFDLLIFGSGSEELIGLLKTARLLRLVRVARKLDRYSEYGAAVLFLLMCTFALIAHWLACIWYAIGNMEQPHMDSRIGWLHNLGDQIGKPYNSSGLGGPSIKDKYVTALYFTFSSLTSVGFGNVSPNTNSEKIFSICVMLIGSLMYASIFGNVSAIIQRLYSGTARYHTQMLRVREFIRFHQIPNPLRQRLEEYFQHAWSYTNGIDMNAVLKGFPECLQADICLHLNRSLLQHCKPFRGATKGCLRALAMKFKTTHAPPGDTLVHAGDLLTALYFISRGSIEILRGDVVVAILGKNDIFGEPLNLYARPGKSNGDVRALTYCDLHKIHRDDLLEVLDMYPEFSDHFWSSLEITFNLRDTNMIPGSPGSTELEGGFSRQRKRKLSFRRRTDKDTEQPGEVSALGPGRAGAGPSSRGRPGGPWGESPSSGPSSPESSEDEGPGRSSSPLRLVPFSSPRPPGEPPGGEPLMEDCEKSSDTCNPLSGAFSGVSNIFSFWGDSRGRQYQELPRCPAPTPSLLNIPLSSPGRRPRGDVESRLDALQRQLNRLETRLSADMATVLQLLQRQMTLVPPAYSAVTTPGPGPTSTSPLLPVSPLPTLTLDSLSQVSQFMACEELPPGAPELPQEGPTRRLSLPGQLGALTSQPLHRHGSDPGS

NADPH oxidase 1 = NADPH oxidase 1 (Homo sapiens, UniProt Q9Y5S8); assay: Late-stage luminescence-based cell-based dose response assay to identify inhibitors of NADPH oxidase 1 (NOX1): Synthesized analogs 3.; format: functional
[19] = target: Signal transducer and activator of transcription 1-alpha/beta (Homo sapiens, UniProt P42224); assay: STAT1 signalling inhibitors, dose response, cell-based, NIH 3T3, luciferase reporter (AID 1396); format: functional
Signal transducer and activator of transcription 1-alpha/beta, sequence (P42224 whole entry): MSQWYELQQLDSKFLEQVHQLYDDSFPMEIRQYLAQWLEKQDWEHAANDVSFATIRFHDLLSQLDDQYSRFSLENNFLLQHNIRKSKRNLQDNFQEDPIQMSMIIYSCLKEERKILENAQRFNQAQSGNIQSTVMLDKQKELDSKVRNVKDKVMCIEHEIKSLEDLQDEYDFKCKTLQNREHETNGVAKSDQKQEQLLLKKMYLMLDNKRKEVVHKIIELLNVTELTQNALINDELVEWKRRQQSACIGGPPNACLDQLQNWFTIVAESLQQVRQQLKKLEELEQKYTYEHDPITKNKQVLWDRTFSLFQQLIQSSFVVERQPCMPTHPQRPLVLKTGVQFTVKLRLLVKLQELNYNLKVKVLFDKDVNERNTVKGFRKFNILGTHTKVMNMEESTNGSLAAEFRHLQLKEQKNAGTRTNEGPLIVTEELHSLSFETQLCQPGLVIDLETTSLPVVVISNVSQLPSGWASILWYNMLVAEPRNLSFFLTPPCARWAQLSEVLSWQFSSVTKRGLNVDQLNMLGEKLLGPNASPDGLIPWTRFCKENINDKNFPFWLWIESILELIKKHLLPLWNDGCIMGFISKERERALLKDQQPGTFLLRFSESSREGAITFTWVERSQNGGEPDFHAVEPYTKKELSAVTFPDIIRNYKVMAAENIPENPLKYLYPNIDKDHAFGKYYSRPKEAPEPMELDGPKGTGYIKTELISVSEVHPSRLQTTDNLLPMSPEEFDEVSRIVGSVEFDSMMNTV

[20] = target: RNA-editing ligase 1, mitochondrial (Trypanosoma brucei brucei, UniProt P86926); assay: TbREL1 ligase inhibitors, dose response, biochemical, fluorescence, Trypanosoma brucei (AID 1117295); format: functional
RNA-editing ligase 1, mitochondrial, sequence (P86926 whole entry): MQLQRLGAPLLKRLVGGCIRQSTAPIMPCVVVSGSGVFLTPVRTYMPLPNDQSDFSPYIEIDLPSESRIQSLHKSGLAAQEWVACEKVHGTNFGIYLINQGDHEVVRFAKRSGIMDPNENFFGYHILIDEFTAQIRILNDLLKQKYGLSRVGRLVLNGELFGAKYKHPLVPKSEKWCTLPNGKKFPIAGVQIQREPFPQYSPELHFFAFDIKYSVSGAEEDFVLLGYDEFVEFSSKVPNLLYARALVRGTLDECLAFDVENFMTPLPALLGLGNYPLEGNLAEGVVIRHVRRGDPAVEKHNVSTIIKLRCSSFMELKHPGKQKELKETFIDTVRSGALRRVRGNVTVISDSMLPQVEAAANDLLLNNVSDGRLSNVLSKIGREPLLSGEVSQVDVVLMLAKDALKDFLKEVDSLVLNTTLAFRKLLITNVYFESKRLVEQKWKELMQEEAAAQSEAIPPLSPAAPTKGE

Phospholipase D2 = Phospholipase D2 (Homo sapiens, UniProt O14939); assay: PLD2 Cellular Concentration Response Study.; format: functional
Phospholipase D1 = target: T5, Phospholipase D1 (Homo sapiens, UniProt Q13393); assay: PLD1 Cellular Concentration Response Study.; format: functional
T5 sequence (Q13393 whole entry): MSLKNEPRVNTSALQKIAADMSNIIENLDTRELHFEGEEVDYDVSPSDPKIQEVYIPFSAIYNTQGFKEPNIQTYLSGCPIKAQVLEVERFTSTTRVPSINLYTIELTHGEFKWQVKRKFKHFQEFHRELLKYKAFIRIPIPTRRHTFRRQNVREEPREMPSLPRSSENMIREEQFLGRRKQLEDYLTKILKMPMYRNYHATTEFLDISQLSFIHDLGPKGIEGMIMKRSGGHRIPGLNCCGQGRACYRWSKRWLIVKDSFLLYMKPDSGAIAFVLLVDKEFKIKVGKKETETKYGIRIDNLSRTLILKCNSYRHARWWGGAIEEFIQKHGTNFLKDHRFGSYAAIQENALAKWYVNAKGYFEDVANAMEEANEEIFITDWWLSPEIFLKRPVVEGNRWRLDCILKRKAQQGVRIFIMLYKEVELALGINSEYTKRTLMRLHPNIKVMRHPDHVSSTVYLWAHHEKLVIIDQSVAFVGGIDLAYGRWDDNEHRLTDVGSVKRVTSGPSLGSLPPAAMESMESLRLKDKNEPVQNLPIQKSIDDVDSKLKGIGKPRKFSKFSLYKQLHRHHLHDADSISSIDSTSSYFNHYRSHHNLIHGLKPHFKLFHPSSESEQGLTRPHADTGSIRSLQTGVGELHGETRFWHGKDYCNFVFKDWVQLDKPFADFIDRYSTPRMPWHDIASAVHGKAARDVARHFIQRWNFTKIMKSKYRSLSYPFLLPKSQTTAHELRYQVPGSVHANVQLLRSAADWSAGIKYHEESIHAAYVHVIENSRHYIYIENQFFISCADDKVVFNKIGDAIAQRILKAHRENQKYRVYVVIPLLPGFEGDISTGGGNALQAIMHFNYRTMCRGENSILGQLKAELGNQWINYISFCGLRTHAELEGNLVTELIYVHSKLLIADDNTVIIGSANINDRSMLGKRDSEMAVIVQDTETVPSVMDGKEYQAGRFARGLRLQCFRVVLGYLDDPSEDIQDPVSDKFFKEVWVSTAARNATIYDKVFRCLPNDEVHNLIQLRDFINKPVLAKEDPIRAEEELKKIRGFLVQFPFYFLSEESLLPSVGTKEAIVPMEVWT

[21] = target: Metabotropic glutamate receptor 7 (Homo sapiens, UniProt Q14831); assay: mGlu7 positive allosteric modulators, dose response, cell-based, calcium mobilization, Galpha15 (AID 743384); format: functional
cells = settings: HEK293

For `Cc1cccc(N2C(=O)C(Cl)=C(N3CCN(C)CC3)C2=O)c1`, the IC50 (Bcl-2-related protein A1 [1]) was 12.6 µM (active), the IC50 (Bcl-2-related protein A1 [2]) was 10.8 µM (active) and the IC50 [3] was > 100 µM (not active).
With `O=C(Nc1cccnc1)Nc1cc(Cl)cc(Cl)c1` the EC50 [4] was > 1.13 µM (active), the EC50 [5] was 7.83 µM (active) and the EC50 (Streptococcus) was 85.4 µM (active). For the same compound, the EC50 (Streptokinase A) was > 150 µM (not active).
For `CN1CC=C2C(C#N)=C(N)C(C#N)(C#N)[C@H](c3cccc(Cl)c3)C2C1` (some centres not stated), the IC50 (Bcl-2-related protein A1 [2]) was > 100 µM (not active), the IC50 (Bcl-2-related protein A1 [6]) was > 100 µM (not active) and the EC50 [7] was 12.5 µM (active). For the same compound, the EC50 [8] was 11.6 µM (active).
With `CCOc1cc(C)c(Cl)cc1S(=O)(=O)NCc1ccco1` the CC50 [9] was 27.7 µM (active).
With `Cc1c(NC(=O)CCN2C(=O)c3ccccc3C2=O)c(=O)n(-c2ccccc2)n1C` the EC50 [10] was > 112 µM (not active), the IC50 (Ephrin type-A receptor 4) was > 100 µM (not active) and the EC50 [11] was > 112 µM (not active).
In the case of `CCOc1ccc(-c2csc(Nc3ccc(C#N)cc3)n2)cc1`, the IC50 [12] is reported as > 50 µM (not active) and the IC50 [13] is reported as > 50 µM (not active).
With `Cc1cnc(NC(=O)CCCc2nc3ccccc3s2)s1` the EC50 [14] was > 91.2 µM (inactive), the IC50 [15] was > 67.5 µM (inactive) and the EC50 [16] was > 91.2 µM (inactive). For the same compound, the IC50 [17] was 563 nM (active), the AC50 (Cytochrome P450 2C9) was 5.62 µM (inconclusive) and the EC50 (Transthyretin) was > 167 µM (inactive).
For `O=c1c2cc(I)ccc2nc2n1CCC2`, the CC50 (Vero) was > 100 µM (active).
In the case of `CCc1nnc(NC(=O)CSc2nc(-c3ccccc3)cc(-c3ccc(OC)cc3)c2C#N)s1`, the EC50 [18] is reported as 1.31 µM (active).
For `CN1c2ccc(Br)cc2Sc2cc(C(=O)c3ccccc3)ccc21`, the IC50 (NADPH oxidase 1) was > 20 µM (not active).
For `Cc1ccc(C2=NN=C(c3ccncc3)c3ccc4ccccc4c3N2)cc1`, the IC50 [19] was 3.52 µM (active).
With `COC(=O)C1=C(C)N(Cc2cccc(C(F)(F)F)c2)C(NCc2ccc(OC)cc2)=NC1c1ccc(F)cc1` (configuration not stated) the IC50 [20] was > 96.6 µM (inactive).
For `O=C(NCCN1CCC2(CC1)C(=O)NCN2Cc1ccccc1Cl)c1ccc2ccccc2c1`, the IC50 (Phospholipase D2) was 110 nM (active) and the IC50 (Phospholipase D1) was 2.3 µM (active).
For `COC(=O)c1ccc(-n2c(C)cc(C(=O)CSCc3ccc(OC)cc3)c2C)cc1`, the EC50 [21] was 1 µM (active).
With `CC(C)Oc1cccc(OCCn2cnc3ccccc32)c1` the AC50 (cells) was > 52 µM (inactive).
